The text below walks through data of patent US20050261194A1, “Use of thymulin-like peptides for making pain-relieving medicines” (priority 2001, published 2005).

Holding throughout (assay type): in vivo, rat
One assay concerns NGF. Nature of the assay: NGF in hind paw skin after intraplantar ET (immunological kit). On the procedure:
These experiments required tissue sampling. The animals were sacrificed by anesthesia (sodium penthiobarbital, 50 mg/kg) and the skin of the hind paws is sampled either at 1 h (for the determination of the TNFα) or at 4 h (for the determination of IL-1β, IL-6 and NGF) after the endotoxin injection.
These tissue samples are weighed and then quick frozen and stored at −70° C. with a view of proceeding with the evaluation of IL-1β, TNFα, IL-6 and NGF.
In another series of experiments, the tissues are taken as described above using different groups of rats; the one group being pretreated with TAP 30 minutes before injection of ET and the other group having been injected with TAP only.
The tissues are homogenized in a phosphate buffer solution (PBS, pH=7.4), containing 0.4 M of NaCl, 0.05% of Tween-20®, 0.5% bovine serum albumin (BSA), 0.1 mM of phenylmethylsulfonyl fluoride, 0.1 mM of benzethonium chloride, 10 mM of EDTA and 20 KI/mL of aprotinin.
The mixture is then centrifuged at 1,200 g for 60 minutes at 4° C. The cytokines and the NFG contained in the supernatant were measured using ELIZA assays.
The NGF is measure with the aid of an immunological kit (Promega) by following the recommended instructions of the manufacturer. […]

Assay [1] has as its system rats. Nature of the assay: CCI (chronic constriction injury) mononeuropathy: allodynia and hyperpathy. How it is done:
Adult male Sprague-Dawley rats (250-300 g) were used for these trials. Over the period of the experiments, the rats were placed under standard conditions (4 to 5 individuals to a cage, 12 hour day/night cycle, 22.2° C.), with free access to water and food. The necessary surgical procedures were done under deep anesthesia using ketamine (Ketalar®, 40-50 mg/kg, intraperitoneal injection), preceded by pre-anesthesia using chlorpromazine (8 mg/kg, idem) and atropine (0.05 mg/kg, idem).
Mononeuropathy was induced in different groups of rats (n=6 rats in each group) according to the CCI (chronic constriction injury, chronic nerve constriction, Bennet G. J. et Xie Y. K., 1988, A peripheral mononeuropathy in rat that produces disorders of pain sensation like those seen in man, Pain, 33:87-107) or according to the SNI (spared nerve injury, spared nerve of the enervated paw, Decosterd I. et Woolf C. J., 2000, Spared nerve injury: an animal model of persistent peripheral neuropathic pain, Pain, 87:149-158). The sciatic nerve was exposed after dissection of the posterior hip and by incision through the skin and the fatty layer covering the popliteal fossa. For the CCI model, four loose ligatures (chromed catgut 4.0) were placed on the proximal side of the sciatic trifurcation. For the SNI model, the external popliteal sciatic nerve and the internal popliteal sciatic nerve were isolated, tightly ligatured and sectioned, while the sural nerve innervating the lateral aspect of the paw was left intact.
The rats were placed in individual compartments of one cage, whose floor was made of a metal grating allowing access to the heel pad and to the lateral aspect of the paw with wires.
For mechanical allodynia, the plantar surface of the hind paws (lateral surface for the SNI model and the median plantar surface for the CCI) was contacted with the von Frey wires (VFF 4.31 and 5.07, Stoelting Co., USA), which corresponded to the forces of 2.041 and 11.749 g (18.5 and 106.7 mN), respectively. […] The number of paw retractions induced by 10 trials was established for each rat on each hind paw prior to (baseline) and after induction of the mono-neuropathy. In normal rats, the low caliber wires (VFF 4.31) and higher caliber (VFF 5.07) induced an average 1.3±0.2 and 2.7±0.3 responses/10 trials, respectively.
The method described by Choi et al. (1994, Behavioral signs of ongoing pain and cold allodynia in a rat model of neuropathic pain, Pain, 59:369-376) was used for evaluation of cold allodynia. It consists of applying several drops (approximately 50 μl) of an acetone solution on the paw and measuring the duration of the retraction reaction. One half second and 20 seconds are the values chosen arbitrarily for the minimum and maximum threshold, respectively.
The duration (D) of retraction of the paw (RP) in response to a nociceptive ray of radiant heat oriented towards the plantar surface was established in the normal rat. […] the DRP after induction of the mononeuropathy was considered to be an indication of hyperalgesia. Each rat underwent two RP tests per session a minimum of every five minutes.
The neuropathic manifestations were at maximum seven to ten days after induction of the neuropathy. The effects of the injections of TAP were tested during this period, which corresponds to the peak of the neuropathy.
During the experiments done on rats suffering from neuropathy, allodynia and hyperpathy were evaluated in each group of animals with reference to the baseline condition established prior to induction of mononeuropathy. For example, the average of the number of paw withdrawal induced by each VFF was calculated for all of the rats of each group and the variation of this mean has been determined after treatment with TAP at different time periods after the injection. The same method has been followed for allodynia in the code and the hypertrophy relative to heat.

Assay [2] concerns rats. Put plainly: Daily treatment with TAP in neuropathic rats (model not stated, FIG. 11). To be noted: TAP 1 μg in 100 μL daily over 5 consecutive days.
Assay [3] concerns rats. Put plainly: Visceral pain induced by intraperitoneal injection of capsaicin; 4-level behavioral scale. How it is done: This test consisted of injecting (i.p.) 20 μg of capsaicin in 100 μl of a 10% solution Tween 20 in olive oil in some rats and observing the behavior induced by these injections. A 4-level behavioral scale was designed according to the method described by Giesler G J et al., (1976, Inhibition of visceral pain by electrical stimulation of the periaqueductal gray matter, Pain 2:43-48).
The levels were defined as follows: 0=normal behavior; 1=slight contraction of the abdominal muscles; 2=contraction of one single side and luxation of the haunch dropping; 3=significant contraction of the abdominal muscles and extension of the two rear paws.
For the evaluation of the animals' behavior, each rat was placed in transparent cage placed over a mirror inclined at 45° for optimum observation.
[…] None of the two observers knew the injection administered nor the expected effects.
For the injection i.p. of the capsaicin, the total time corresponding to each behavioral level was measured for the animals having received the capsaicin alone or the capsaicin after the TAP. The variation of the neuropathic manifestations or of the pain tests after the treatments were evaluated by ANOVA then by Bonfrerroni tests done post hoc. The variations of the pain scores with or without treatment were evaluated by the Student bilateral test by assuming a significance level of 5% (p<0.05).

As for “Glu-Ala-lys-Ser-Gln-Gly-Gly-Ser-Asp (SQGGSD; N-terminal Glu-Ala-Lys; printed: Ser-Gln-Gly-Gly-Ser-Asp) [TAP]”, in the assay with NGF (TAP 25 μg in control animals, no ET), the “change of NGF concentration, TAP alone” value is given as “did not induce significant change”. Further, the NGF concentration in the assay on NGF (TAP pretreatment before intraplantar ET, ET alone 23.0±1.73, saline 9.11±1.6, p<0.001) came out at 16.73±2.70 ng/paw. In addition, in the assay with rats [1] (CCI, TAP 5 μg i.p.), the “reversibility of the effects, time after injection” value is “three to four hours”; the “time of maximum effect on cold allodynia after injection” value turned out to be 75 min; the “time of maximum effect on hyperpathy after injection” value is 75 min; the “time of maximum effect on mechanical allodynia after injection” value is “two hours”. The “dose giving maximal attenuation of the neuropathic manifestations” value in the assay with rats [1] (CCI, doses 1, 5 and 25 μg compared, FIG. 7) is 5 μg/rat. The “effect on neuropathic manifestations, CCI model” value in the assay with rats [1] (TAP 5 μg in 100 μl i.p., FIG. 5) is reported as “significant attenuation”. In the assay with rats [2] (FIG. 11), the “effect of daily treatment on allodynia” value was “progressive reduction of the manifestations of the allodynia” and the “effect of daily treatment on the effects of each injection” value is “potentiation of the effects of each injection”. Moreover, the “effect of daily treatment on cold allodynia” value with rats [2] (compared with single injection) is reported as “increased inhibition of the cold allodynia”. In addition, the “effect on nociception scores induced by capsaicin” value with rats [3] (TAP 50 μg before capsaicin 20 μg i.p., FIG. 9) is given as “significant shift to the left”. The “time at behavioral level 0” value in the assay with rats [3] (TAP 50 μg in 200 μl/rat before capsaicin 20 μg i.p., capsaicin alone 0.2±0.3, 36 minutes observation) is 0.82 ± 0.18 min. Moreover, in the assay with rats [3] (TAP 50 μg in 200 μl/rat before capsaicin 20 μg i.p., capsaicin alone 2.51±0.45, 36 minutes observation), the “time at behavioral level 1” value was found to be 12.89 ± 2.5 min. The “time at behavioral level 3” value in the assay with rats [3] (TAP 50 μg in 200 μl/rat before capsaicin 20 μg i.p., capsaicin alone 11.84±0.43, 36 minutes observation) turned out to be 6.67 ± 0.09 min. The “time at behavioral level 2” value in the assay with rats [3] (TAP 50 μg in 200 μl/rat before capsaicin 20 μg i.p., capsaicin alone 21.5±0.8, 36 minutes observation) was determined as 15.62 ± 0.9 min.
